Measured values published in patent publication US20070060544A1, “4-Nitro-2-[(4'-methoxy)-phenoxy]-methanesulfonanilide derivatives and their pharmaceutical use” (priority 2002, published 2007).

What was measured:
[1] = test system: carrageenin-induced paw inflammation; test: paw inflammation induced by carrageenin in mice; assay type: in vivo; conditions: for anti-inflammatory effects relative to nimesulide (times stronger): 0.243 mM/kg vs nimesulide 0.243 mM/kg; for anti-inflammatory effects relative to nimesulide (times stronger) / Paw Swelling mm (M ± SD) at 3 hours: at 3 hours; for anti-inflammatory effects compared with nimesulide (in words) / Paw Swelling mm (M ± SD) at 3 hours / Paw Swelling mm (M ± SD) at 6 hours: mice; for anti-inflammatory effects compared with nimesulide (in words): oral; for Paw Swelling mm (M ± SD) at 3 hours / Paw Swelling mm (M ± SD) at 6 hours: orally administered; for Paw Swelling mm (M ± SD) at 3 hours: 0.243 mM/Kg; for Paw Swelling mm (M ± SD) at 6 hours: 0.485 mM/Kg
[2] = test system: acetate-induced body twisting; test: acetate-induced body twisting in mice (analgesic effect); conditions: for analgesic effects compared with nimesulide (in words): oral
[3] = acute oral toxicity in mice; conditions: orally administered
[4] = orally administered, 0.485 mM/Kg
[5] = orally administered, 0.97 mM/Kg

Row | Molecule | anti-inflammatory effects relative to nimesulide (times stronger) [1] | anti-inflammatory effects compared with nimesulide (in words) [1] | Paw Swelling mm (M ± SD) at 3 hours [1] | Paw Swelling mm (M ± SD) at 6 hours [1] | analgesic effects compared with nimesulide (in words) [2] | No. of body-twistings (M ± SD) at 1 hour [2, 4] | No. of body-twistings (M ± SD) at 1 hour [2, 5] | LD50 value (95% C.L.) [3] | toxicity relative to nimesulide (times lower) [3] | No. of body-twisting (M ± SD) at 3 hours [2, 4] | No. of body-twisting (M ± SD) at 6 hours ([2]; orally administered, 0.97 (head: mg/Kg), at 6 hours)
1 | 4-nitro-2-[(4′-methoxy)-phenoxy]-methanesulfonyl aniline [S6] | about 4 times | significantly stronger than that of nimesulide | 0.58 ± 0.67 mm | 1.91 ± 0.66 mm | significantly stronger than nimesulide | 11.4 ± 5.3 | 10.8 ± 11.4 | 2355.5 mg/kg | about 4 times | – | –
2 | CS(=O)(=O)Nc1ccc([N+](=O)[O-])cc1Oc1ccccc1 [Nimesulide, nimesulide, reference compound] | – | – | 2.10 ± 1.39 mm | 2.58 ± 1.20 mm | – | – | 14.8 ± 11.7 | – | – | 11.1 ± 9.7 | 21.00 ± 19.09
3 | COc1ccc(Oc2cc([N+](=O)[O-])ccc2NS(C)(=O)=O)cc1.C[C@H]1CC[C@H](N)CC1 [S9, 4-nitro-2-[(4′-methoxy)-phenoxy]-methanesulfonyl aniline, trans-4-methyl-cyclohexylamine salt] | 2 times | significantly stronger than that of nimesulide | 1.18 ± 0.65 mm | – | significantly stronger than nimesulide | – | – | 1223.3 mg/kg | about 2 times | 6.7 ± 6.2 | –
